Active and inactive are the calls of the source. The rule behind the calls is not given here.
Tested on: CCRIS mutagenicity, Ames/micronucleus/aberration tests
Test: CCRIS mutagenicity studies

`CCOC(N)=O` was tested, and the mutagenic call (End Point: IN VITRO MICRONUCLEUS, Test System: CHL/IU CELLS, Metabolic Activation: RAT, LIVER, S-9, PHENOBARBITAL AND 5,6-BENZOFLAVONE) was “inactive; negative”, the mutagenic call (End Point: IN VITRO MICRONUCLEUS, Test System: V79 CELLS, Metabolic Activation: NONE) was “inactive; negative” and the mutagenic call (End Point: IN VIVO MICRONUCLEUS, Test System: BLOOD PERIPHERAL POLYCHROMATIC AND NORMOCHROMATIC ERYTHROCYTES, Species: MICE, Strain/Sex: CYP2E1+/+ WILD TYPE/MALE, Route: ORAL (GAVAGE)) was “active; positive for both types of cells”. The mutagenic call (End Point: IN VIVO MICRONUCLEUS, Test System: BLOOD PERIPHERAL POLYCHROMATIC AND NORMOCHROMATIC ERYTHROCYTES, Species: MOUSE, Strain/Sex: CYP2E1-/- KO (KNOCKOUT)/MALE, Route: ORAL (GAVAGE)) was “inactive; negative for nce; equivocal for pce”, the mutagenic call (End Point: IN VIVO MICRONUCLEUS, Test System: ERYTHROCYTES, Species: MOUSE, Strain/Sex: WILD-TYPE (CYP2E1+/+, WT)/MALE, Route: GAVAGE) was “active; positive; significant dose-dependent increase in both polychromatic and normochr” and the mutagenic call (End Point: IN VIVO MICRONUCLEUS, Test System: PERIPHERAL BLOOD ERYTHROCYTES, Species: MOUSE, Strain/Sex: KNOCK OUT (CYP2E1-/-, KO)/MALE, Route: GAVAGE) was “inactive; negative (normochromatic erythrocytes); authors described results in polychromat”. For the same compound, the mutagenic call (Test System: AMES SALMONELLA TYPHIMURIUM, Strain/Indicator: TA97, Metabolic Activation: HAMSTER, LIVER, S-9, AROCLOR 1254 (30%), Method: PREINCUBATION) was “inactive; negative”, the mutagenic call (Test System: AMES SALMONELLA TYPHIMURIUM, Strain/Indicator: TA97, Metabolic Activation: NONE, Method: PREINCUBATION) was “inactive; negative” and the mutagenic call (Test System: AMES SALMONELLA TYPHIMURIUM, Strain/Indicator: TA97, Metabolic Activation: RAT, LIVER, S-9, AROCLOR 1254 (30%), Method: PREINCUBATION) was “inactive; negative”. The mutagenic call (Test System: AMES SALMONELLA TYPHIMURIUM, Strain/Indicator: TA98, Metabolic Activation: HAMSTER, LIVER, S-9, AROCLOR 1254 (30%), Method: PREINCUBATION) was “inactive; negative”, the mutagenic call (Test System: AMES SALMONELLA TYPHIMURIUM, Strain/Indicator: TA98, Metabolic Activation: NONE, Method: PREINCUBATION) was “inactive; negative” and the mutagenic call (Test System: AMES SALMONELLA TYPHIMURIUM, Strain/Indicator: TA98, Metabolic Activation: RAT LIVER S-9, AROCLOR 1254, Method: PREINCUBATION) was “inactive; negative”. For the same compound, the mutagenic call (Test System: AMES SALMONELLA TYPHIMURIUM, Strain/Indicator: TA98, Metabolic Activation: RAT, LIVER, S-9, AROCLOR 1254 (30%), Method: PREINCUBATION) was “inactive; negative”, the mutagenic call (Test System: AMES SALMONELLA TYPHIMURIUM, Strain/Indicator: TA98, Metabolic Activation: RAT, LIVER, S-9, ETHANOL, Method: PREINCUBATION) was “inactive; negative” and the mutagenic call (Test System: AMES SALMONELLA TYPHIMURIUM, Strain/Indicator: TA98, Metabolic Activation: RAT, LIVER, S-9, PYRAZOLE, Method: PREINCUBATION) was “inactive; negative”. For the same compound, the mutagenic call (Test System: AMES SALMONELLA TYPHIMURIUM, Strain/Indicator: TA98, Metabolic Activation: RAT, LIVER, S-9, Method: STANDARD PLATE) was “inactive; negative”, the mutagenic call (Test System: AMES SALMONELLA TYPHIMURIUM, Strain/Indicator: TA100, Metabolic Activation: HAMSTER, LIVER, S-9, AROCLOR 1254 (5, 10 OR 30%), Method: PREINCUBATION) was “inactive; negative” and the mutagenic call (Test System: AMES SALMONELLA TYPHIMURIUM, Strain/Indicator: TA100, Metabolic Activation: NONE, Method: PREINCUBATION) was “inactive; negative”. The mutagenic call (Test System: AMES SALMONELLA TYPHIMURIUM, Strain/Indicator: TA100, Metabolic Activation: RAT LIVER S-9, AROCLOR 1254, Method: PREINCUBATION) was “inactive; negative”, the mutagenic call (Test System: AMES SALMONELLA TYPHIMURIUM, Strain/Indicator: TA100, Metabolic Activation: RAT, LIVER, S-9, AROCLOR 1254 (5, 10 OR 30%), Method: PREINCUBATION) was “inactive; negative” and the mutagenic call (Test System: AMES SALMONELLA TYPHIMURIUM, Strain/Indicator: TA100, Metabolic Activation: RAT, LIVER, S-9, ETHANOL, Method: PREINCUBATION) was “inactive; negative”. For the same compound, the mutagenic call (Test System: AMES SALMONELLA TYPHIMURIUM, Strain/Indicator: TA100, Metabolic Activation: RAT, LIVER, S-9, PYRAZOLE, Method: PREINCUBATION) was “inactive; negative”, the mutagenic call (Test System: AMES SALMONELLA TYPHIMURIUM, Strain/Indicator: TA100, Metabolic Activation: RAT, LIVER, S-9, Method: STANDARD PLATE) was “inactive; negative” and the mutagenic call (Test System: AMES SALMONELLA TYPHIMURIUM, Strain/Indicator: TA102, Metabolic Activation: NONE, Method: PREINCUBATION) was “inactive; negative”. The mutagenic call (Test System: AMES SALMONELLA TYPHIMURIUM, Strain/Indicator: TA102, Metabolic Activation: RAT LIVER S-9, AROCLOR 1254, Method: PREINCUBATION) was “inactive; negative”, the mutagenic call (Test System: AMES SALMONELLA TYPHIMURIUM, Strain/Indicator: TA102, Metabolic Activation: RAT LIVER S-9, PHENOBARBITAL AND 5,6-BENZOFLAVONE, Method: STANDARD PLATE) was “inactive; negative” and the mutagenic call (Test System: AMES SALMONELLA TYPHIMURIUM, Strain/Indicator: TA102, Metabolic Activation: RAT, LIVER, S-9, ETHANOL, Method: PREINCUBATION) was “inactive; negative”. For the same compound, the mutagenic call (Test System: AMES SALMONELLA TYPHIMURIUM, Strain/Indicator: TA102, Metabolic Activation: RAT, LIVER, S-9, PYRAZOLE, Method: PREINCUBATION) was “inactive; negative”, the mutagenic call (Test System: AMES SALMONELLA TYPHIMURIUM, Strain/Indicator: TA1535, Metabolic Activation: HAMSTER, LIVER, S-9, AROCLOR 1254 (30%), Method: PREINCUBATION) was “active; positive” and the mutagenic call (Test System: AMES SALMONELLA TYPHIMURIUM, Strain/Indicator: TA1535, Metabolic Activation: NONE, Method: PREINCUBATION) was “inactive; negative”. For the same compound, the mutagenic call (Test System: AMES SALMONELLA TYPHIMURIUM, Strain/Indicator: TA1535, Metabolic Activation: RAT, LIVER, S-9, AROCLOR 1254 (5 OR 10%), Method: PREINCUBATION) was “inactive; negative”, the mutagenic call (Test System: AMES SALMONELLA TYPHIMURIUM, Strain/Indicator: TA1535, Metabolic Activation: RAT, LIVER, S-9, AROCLOR 1254 (30%), Method: PREINCUBATION) was “inactive; negative” and the mutagenic call (Test System: AMES SALMONELLA TYPHIMURIUM, Strain/Indicator: TA1535, Metabolic Activation: RAT, LIVER, S-9, ETHANOL, Method: PREINCUBATION) was “inactive; negative”. The mutagenic call (Test System: AMES SALMONELLA TYPHIMURIUM, Strain/Indicator: TA1535, Metabolic Activation: RAT, LIVER, S-9, PYRAZOLE, Method: PREINCUBATION) was “inactive; negative”, the mutagenic call (Test System: AMES SALMONELLA TYPHIMURIUM, Strain/Indicator: TA1537, Metabolic Activation: HAMSTER, LIVER, S-9, AROCLOR 1254 (30%), Method: PREINCUBATION) was “inactive; negative” and the mutagenic call (Test System: AMES SALMONELLA TYPHIMURIUM, Strain/Indicator: TA1537, Metabolic Activation: NONE, Method: PREINCUBATION) was “inactive; negative”. The mutagenic call (Test System: AMES SALMONELLA TYPHIMURIUM, Strain/Indicator: TA1537, Metabolic Activation: RAT, LIVER, S-9, AROCLOR 1254 (30%), Method: PREINCUBATION) was “inactive; negative”, the mutagenic call (Test System: AMES SALMONELLA TYPHIMURIUM, Strain/Indicator: TA1537, Metabolic Activation: RAT, LIVER, S-9, PYRAZOLE, Method: PREINCUBATION) was “inactive; negative” and the mutagenic call (Test System: AMES SALMONELLA TYPHIMURIUM, Strain/Indicator: TA2638, Metabolic Activation: RAT LIVER S-9, PHENOBARBITAL AND 5,6-BENZOFLAVONE, Method: STANDARD PLATE) was “inactive; negative”. For the same compound, the mutagenic call (Test System: Ames Salmonella typhimurium, Strain/Indicator: YG7108pin3ERb5, Metabolic Activation: None, Method: Standard plate) was “inactive; negative”, the mutagenic call (Test System: E. COLI, Strain/Indicator: WP2 (PKM101), Metabolic Activation: RAT LIVER S-9, PHENOBARBITAL AND 5,6-BENZOFLAVONE, Method: STANDARD PLATE) was “inactive; negative” and the mutagenic call (Test System: E. COLI, Strain/Indicator: WP2 UVRA (PKM101), Metabolic Activation: RAT LIVER S-9, PHENOBARBITAL AND 5,6-BENZOFLAVONE, Method: STANDARD PLATE) was “inactive; negative”. The mutagenic call (Test System: E. COLI, Strain/Indicator: WP2 UVRA, Metabolic Activation: NONE, Method: FLUCTUATION TEST) was “inactive; negative”, the mutagenic call (Test System: MOUSE LYMPHOMA, Strain/Indicator: L5178Y (TK+/TK-), Metabolic Activation: NONE, Method: MICROWELL) was “inactive; negative” and the mutagenic call (Test System: MOUSE LYMPHOMA, Strain/Indicator: L5178Y (TK+/TK-), Metabolic Activation: S-9, Method: MICROWELL) was “inactive; negative”. The mutagenic call (Test System: UDS MOUSE SPERMATIDS, Strain/Indicator: THY INCORP, Metabolic Activation: NONE) was “active; positive”.
In the case of `COC(=O)CN(CC(=O)OC)C1C[C@H]1N(CC(=O)OC)CC(=O)OC` (some centres undefined), the mutagenic call (Test System: CHINESE HAMSTER V-79, Strain/Indicator: V-79/OUABAIN, Metabolic Activation: NONE, Method: STANDARD PLATE) is reported as “active; positive”.
`ClCc1cc2cc3ccccc3c3ccc4cccc1c4c23` was tested, and the mutagenic call (Test System: AMES SALMONELLA TYPHIMURIUM, Strain/Indicator: TA98, Metabolic Activation: NONE, Method: STANDARD PLATE) was “active; positive” and the mutagenic call (Test System: AMES SALMONELLA TYPHIMURIUM, Strain/Indicator: TA100, Metabolic Activation: NONE, Method: STANDARD PLATE) was “active; positive”.

Reference: PubChem BioAssay AID1259407 (Chemical Carcinogenesis Research Information System (CCRIS), 2018)
